In patent publication US20100029620A1, “SUBSTITUTED TRIAZOLINE, TETRAZOLONE AND IMIDAZOLONE DERIVATIVES FOR USE AS A MEDICINE” (JANSSEN PHARMACEUTICA N.V., priority 2004, published 2010):

Experiments:
[1] = molecular target: T1, human adrenergic-α2A receptor (Homo sapiens, UniProt P08913); experiment: Radioligand binding experiment for α2A-adrenoceptor ([3H]-raulwolscine competition, CHO cell membranes); conditions: [3H]raulwolscine 1 nM, membranes of CHO cells transfected with human α2A receptor; read-out: pIC50 α2A (converted)
T1 construct: expressed in transfected cells; membrane preparation
T1 sequence (P08913 1-465): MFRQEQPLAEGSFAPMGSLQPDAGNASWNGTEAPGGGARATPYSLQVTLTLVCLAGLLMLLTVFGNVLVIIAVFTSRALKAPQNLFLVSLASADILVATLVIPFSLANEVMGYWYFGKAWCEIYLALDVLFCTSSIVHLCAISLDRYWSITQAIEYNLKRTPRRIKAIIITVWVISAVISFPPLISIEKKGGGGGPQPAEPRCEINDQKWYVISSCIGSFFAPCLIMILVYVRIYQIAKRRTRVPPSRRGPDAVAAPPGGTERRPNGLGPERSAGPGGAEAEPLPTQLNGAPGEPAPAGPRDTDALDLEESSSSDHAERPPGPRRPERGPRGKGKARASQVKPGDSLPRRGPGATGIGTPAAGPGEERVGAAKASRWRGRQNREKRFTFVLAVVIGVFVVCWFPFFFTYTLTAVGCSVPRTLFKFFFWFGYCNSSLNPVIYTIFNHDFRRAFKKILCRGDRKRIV
Experimental: (§1) The interaction of the compounds of Formula (I) with α2C-adrenoceptor receptors was assessed in in vitro radioligand binding experiments. In general, a low concentration of a radioligand with a high binding affinity for a particular receptor or transporter is incubated with a sample of a tissue preparation enriched in a particular receptor or transporter or with a preparation of cells expressing cloned human receptors in a buffered medium. During the incubation, the radioligand binds to the receptor or transporter. When equilibrium of binding is reached, the receptor bound radioactivity is separated from the non-bound radioactivity, and the receptor- or transporter-bound activity is counted. The interaction of the test compounds with the receptor is assessed in competition binding experiments. Various concentrations of the test compound are added to the incubation mixture containing the receptor- or transporter preparation and the radioligand. The test compound in proportion to its binding affinity and its concentration inhibits binding of the radioligand. The radioligand used for […] receptor binding was [^3H]-raulwolscine.
(§2) CHO cells, stabile transfected with human adrenergic-α2A-, -α2B or α2C receptor cDNA, were cultured in Dulbecco's Modified Eagle's Medium (DMEM)/Nutrient mixture Ham's F12 (ratio 1:1)(Gibco, Gent-Belgium) supplemented with 10% heat inactivated fetal calf serum (Life Technologies, Merelbeke-Belgium) and antibiotics (100 IU/ml penicillin G, 100 μg/ml streptomycin sulphate, 110 μg/ml pyruvic acid and 100 μg/ml L-glutamine). One day before collection, cells were induced with 5 mM sodiumbutyrate. Upon 80-90% of confluence, cells were scraped in phosphate buffered saline without Ca^2+ and Mg^2+ and collected by centrifugation at 1500×g for 10 min. The cells were homogenised in Tris-HCl 50 mM using an Ultraturrax homogenizer and centrifuged for 10 min at 23,500×g. The pellet was washed once by resuspension and rehomogenization and the final pellet was resuspended in Tris-HCl, divided in 1 ml aliquots and stored at −70° C.
(§3) Membranes were thawed and re-homogenized in incubation buffer (glycylglycine 25 mM, pH 8.0). In a total volume of 500 μl, 2-10 μg protein was incubated with [^3H]raulwolscine (NET-722) (New England Nuclear, USA) (1 nM final concentration) with or without competitor for 60 min at 25° C. followed by rapid filtration over GF/B filter using a Filtermate196 harvester (Packard, Meriden, Conn.). Filters were rinsed extensively with ice-cold rinsing buffer (Tris-HCl 50 mM pH 7.4). Filter-bound radioactivity was determined by scintillation counting in a Topcount (Packard, Meriden, CT) and results were expressed as counts per minute (cpm). Non-specific binding was determined in the presence of 1 μM oxymetazoline for hα2A- and hα2B receptors and 1 μM spiroxatrine for hα2C receptors.
(§4) Data from assays in the presence of compound were calculated as a percentage of total binding measured in the absence of test compound. Inhibition curves, plotting percent of total binding versus the log value of the concentration of the test compound, were automatically generated, and sigmoidal inhibition curves were fitted using non-linear regression. The pIC50 values of test compounds were derived from individual curves.

[2] = molecular target: T2, human adrenergic-α2C receptor (Homo sapiens, UniProt P18825); experiment: Radioligand binding experiment for α2C-adrenoceptor ([3H]-raulwolscine competition, CHO cell membranes); conditions: [3H]raulwolscine 1 nM, membranes of CHO cells transfected with human α2C receptor; read-out: pIC50 α2C (converted)
T2 construct: expressed in transfected cells; membrane preparation
T2 sequence (P18825 1-462): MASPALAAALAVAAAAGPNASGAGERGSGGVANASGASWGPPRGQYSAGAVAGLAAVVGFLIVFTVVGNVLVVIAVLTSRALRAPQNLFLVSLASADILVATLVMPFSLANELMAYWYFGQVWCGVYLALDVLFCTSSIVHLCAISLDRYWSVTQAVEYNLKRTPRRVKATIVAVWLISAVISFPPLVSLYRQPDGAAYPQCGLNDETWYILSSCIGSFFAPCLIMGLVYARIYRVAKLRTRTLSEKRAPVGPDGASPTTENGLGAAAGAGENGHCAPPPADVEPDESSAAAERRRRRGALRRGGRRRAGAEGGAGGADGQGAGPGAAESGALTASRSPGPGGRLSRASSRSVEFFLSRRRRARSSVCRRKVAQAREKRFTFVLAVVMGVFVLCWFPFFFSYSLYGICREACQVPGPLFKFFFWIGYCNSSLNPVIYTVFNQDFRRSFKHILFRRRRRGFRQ
Experimental: as §1, §2, §3, §4

[3] = molecular target: T3, human adrenergic-α2B receptor (Homo sapiens, UniProt P18089); experiment: Radioligand binding experiment for α2B-adrenoceptor ([3H]-raulwolscine competition, CHO cell membranes); conditions: [3H]raulwolscine 1 nM, membranes of CHO cells transfected with human α2B receptor; read-out: pIC50 α2B (converted)
T3 construct: expressed in transfected cells; membrane preparation
T3 sequence (P18089 1-450): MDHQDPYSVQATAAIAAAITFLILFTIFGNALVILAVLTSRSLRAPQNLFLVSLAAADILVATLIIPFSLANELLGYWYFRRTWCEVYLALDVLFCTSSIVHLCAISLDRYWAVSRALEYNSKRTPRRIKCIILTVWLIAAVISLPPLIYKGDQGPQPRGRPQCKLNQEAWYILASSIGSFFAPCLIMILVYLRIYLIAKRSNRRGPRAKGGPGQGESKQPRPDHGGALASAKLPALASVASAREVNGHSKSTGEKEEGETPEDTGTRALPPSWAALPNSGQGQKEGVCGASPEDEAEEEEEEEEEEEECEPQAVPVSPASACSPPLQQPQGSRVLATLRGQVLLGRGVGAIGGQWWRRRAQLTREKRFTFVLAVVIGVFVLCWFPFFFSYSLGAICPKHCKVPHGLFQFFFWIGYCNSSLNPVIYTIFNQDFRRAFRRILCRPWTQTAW
Experimental: as §1, §2, §3, §4

| SMILES | IC50 [1] | IC50 [2] | IC50 [3] |
| --- | --- | --- | --- |
| CC(NCCOc1ccccc1)C(C)n1ncn(-c2ccc(N3CCN(c4ccc(O)cc4)CC3)cc2)c1=O (racemic) [compound 5] | 0.501 µM | 0.01 µM | 0.501 µM |
| CC(NCCOc1ccccc1)C(C)n1ncn(-c2ccc(N3CCN(c4ccc(O)cc4)CC3)cc2)c1=O (single isomer, unassigned) [compound 4] | 2.51 µM | 0.00631 µM | 0.2 µM |
| CC(NCCOc1ccccc1)C(C)n1ncn(-c2ccc(N3CCN(c4ccc(O)cc4)CC3)cc2)c1=O (single isomer, unassigned) [compound 6] | 7.94 µM | 0.2 µM | – |
| CC(NCCOc1ccccc1)C(C)n1ncn(-c2ccc(N3CCN(c4ccc(O)cc4)CC3)cc2)c1=O (single isomer, unassigned) [compound 7] | 0.126 µM | 0.00794 µM | 0.126 µM |
| O=c1n(-c2ccc(CN3CCN(c4ccccc4)CC3)cc2)cnn1CCNCCOc1ccccc1 [compound 2] | 0.2 µM | 0.0251 µM | 0.2 µM |
| O=c1n(-c2ccc(N3CCN(Cc4ccccc4)CC3)cc2)cnn1CCNCCOc1ccccc1 [compound 3] | 0.398 µM | 0.0158 µM | 0.251 µM |
| COc1ccc(N2CCN(c3ccc(-n4cnn(CCNCCOc5ccccc5)c4=O)cc3)CC2)cc1 [compound 8] | 0.631 µM | 0.0158 µM | 0.158 µM |
| COc1ccc(N2CCN(c3ccc(-n4cnn(CCN(C)CCOc5ccccc5)c4=O)cc3)CC2)cc1 [compound 9] | > 10 µM | 0.794 µM | – |
| COc1ccc(N2CCN(c3ccc(-n4cnn(C(C)C(C)NCCOc5ccccc5)c4=O)cc3)CC2)cc1 (stereo not drawn) [compound 10] | 0.631 µM | 0.0158 µM | 0.501 µM |
| COc1ccc(N2CCN(c3ccc(-n4cnn(Cc5ccc(CN)cc5)c4=O)cc3)CC2)cc1 [compound 11] | 7.94 µM | 0.794 µM | – |
| COc1ccccc1C1CCN(c2ccc(-n3cnn(CCNCCOc4ccccc4)c3=O)cc2)C1 (stereo not drawn) [compound 15] | 0.794 µM | 0.1 µM | – |
| O=c1n(-c2ccc(N3CCOCC3)cc2)cnn1CCNCCOc1ccccc1 [compound 22] | 0.794 µM | 0.0501 µM | – |
| O=c1n(-c2ccc(CN3CCOCC3)cc2)cnn1CCNCCOc1ccc(F)cc1 [compound 25] | 2.51 µM | 0.0501 µM | – |
| C/C(=C\c1ccc(F)cc1)CN1CCN(CCn2ncn(Cc3ccc(CN)cc3)c2=O)CC1 [compound 35] | 0.126 µM | 0.0501 µM | – |
| COc1ccc(N2CCN(c3ccc(-n4cnn(C5CCN(Cc6ccc7c(c6)OCCO7)CC5)c4=O)cc3)CC2)cc1 [compound 56] | > 10 µM | 1 µM | – |
| COc1ccc(N2CCN(c3ccc(-n4cnn(C5CCN(C/C(C)=C/c6ccccc6)CC5)c4=O)cc3)CC2)cc1 [compound 57] | > 10 µM | 0.0794 µM | – |
| COc1ccc(N2CCN(c3ccc(-n4cnn(C5CCN(CCOc6ccccc6)CC5)c4=O)cc3)CC2)cc1 [compound 58] | 1.26 µM | 0.0501 µM | – |

| SMILES | IC50 [1] | IC50 [2] | IC50 [3] |
| --- | --- | --- | --- |
| COc1ccc(N2CCN(c3ccc(-n4cnn(Cc5ccc(CN6CCOCC6)cc5)c4=O)cc3)CC2)cc1 [compound 59] | 1.58 µM | 0.631 µM | – |
| C/C(=C\c1ccccc1)CN1CCC(n2ncn(-c3ccc(CN4CCOCC4)cc3)c2=O)CC1 [compound 69] | 0.158 µM | 0.0251 µM | – |
| C/C(=C\c1ccccc1)CN1CCC(Cn2ncn(-c3ccc(CN4CCOCC4)cc3)c2=O)CC1 [compound 70] | 0.398 µM | 0.0398 µM | – |
| O=c1n(-c2ccc(CN3CCOCC3)cc2)cnn1CC1CCN(Cc2ccc3ccccc3c2)CC1 [compound 74] | 0.794 µM | 0.158 µM | – |
| Cc1cc(CN2CCC(Cn3ncn(-c4ccc(CN5CCOCC5)cc4)c3=O)CC2)oc1C [compound 76] | > 10 µM | 0.794 µM | – |
| O=c1n(-c2ccc(CN3CCOCC3)cc2)cnn1CC1CCN(Cc2cc3ccccc3o2)CC1 [compound 77] | 3.16 µM | 0.251 µM | – |
| C/C(=C\c1ccccc1)CN1CCC(n2cnn(-c3ccc(CN4CCOCC4)cc3)c2=O)CC1 [compound 80] | 0.0631 µM | 0.0398 µM | – |
| C/C(=C\c1ccccc1)CN1CCC(n2cnn(Cc3ccc(CN4CCOCC4)cc3)c2=O)CC1 [compound 81] | 0.631 µM | 0.0794 µM | – |
| O=c1n(CCNCCOc2ccccc2)nnn1-c1ccc(CN2CCOCC2)cc1 [compound 106] | 0.398 µM | 0.0398 µM | – |
| N#Cc1cccc(NCCCN2CCN(CCn3ncn(CC4CCN(CCOc5ccccc5)CC4)c3=O)CC2)c1 [compound 124] | 0.0631 µM | 0.00158 µM | – |
| O=c1n(CC2CCN(CCOc3ccccc3)CC2)cnn1CCN1CCN(Cc2ccc3ncccc3c2)CC1 [compound 126] | 0.2 µM | 0.0126 µM | – |
| O=c1n(CC2CCN(CCOc3ccccc3)CC2)cnn1CCN1CCN(c2cccc3c2OCCO3)CC1 [compound 127] | 0.0631 µM | 0.00398 µM | – |
| O=c1n(CC2CCN(CCOc3ccccc3)CC2)cnn1CCN1CCN(Cc2cc3ccccc3[nH]2)CC1 [compound 128] | 0.0794 µM | 0.0126 µM | – |
| O=c1n(CC2CCN(CCOc3ccccc3)CC2)cnn1CCN1CCN(Cc2c[nH]c3ccc(F)cc23)CC1 [compound 129] | 0.0501 µM | 0.002 µM | – |
| O=c1n(CC2CCN(CCOc3ccccc3)CC2)cnn1CCN1CCN(Cc2cc3ccccc3s2)CC1 [compound 130] | 0.0501 µM | 0.00251 µM | – |
| O=c1n(CC2CCN(CCOc3ccccc3)CC2)cnn1CCN1CC2CC=CCC1CN2c1ccc2ccccc2c1 (stereo not drawn) [compound 131] | 0.126 µM | 0.00794 µM | – |
| CC(C)(C)C(=O)Cn1cnn(CC2CCN(CCOc3ccccc3)CC2)c1=O [compound 132] | 0.0631 µM | 0.00501 µM | – |
